Experimental data taken from the SangsterLogP compilation.
Blank lines part the entries; values can stand above or below the molecule they belong to.

Tests used:
[1] = from KURIHARA, Norio.; Fujita, Toshio. (1983). Composition of Partition Coefficients of Polychlorinated Hydrocarbons (Commemoration Issue Dedicated to Professor Yuzo Inouye on the Occasion of his …
[2] = not given; remark: listed apart in the source
[3] = method code SF-GLC, from DOI: 10.1021/es00131a005
[4] = method code SF, from DOI: 10.2307/3575246, PMID: 7367588
[5] = method code SF-HPLC, from DOI: 10.1016/s0021-9673(01)88640-4
[6] = method code SF-TN, from DOI: 10.1085/jgp.71.1.93, PMID: 621494
[7] = method code SF-AS, from DOI: 10.1016/0378-5173(93)90388-v
[8] = not given; remark: listed apart in the source
[9] = method code SF, from DOI: 10.1016/s0960-894x(00)80094-3; details: pH 7.4
[10] = not given; remark: listed apart in the source
[11] = method code SF, from DOI: 10.1021/bk-1995-0606.ch003
[12] = method code SF-RC, from DOI: 10.1002/jps.2600800111, PMID: 2013848
[13] = not given; remark: listed apart in the source
[14] = method code SF-AS, from PMID: 2160644
[15] = method code SF-AS, from DOI: 10.1021/jm0495273.s001, PMID: 15974600; details: pH 7.4
[16] = not given; remark: listed apart in the source
[17] = not given; remark: listed apart in the source
[18] = method code SF-GLC, from Boikov, Yu.; Shibaev, V.; Gaidamaka, V.; V'yunov, K. (1989). Study of correlation between extraction characteristics of glycidyl ethers and theri structure. 62(1)177-179.
[19] = not given; remark: listed apart in the source
[20] = method code SF-CR+AS, from Korenman, I. (1982). The influence of substituents on the partition of phenols between water and organic solvents. Russ. J. Phys. Chem., 56(3)458-460.
[21] = method code SF-TN, from DOI: 10.2116/analsci.13.897; details: pH 2.0
[22] = method code G-HPLC, from DOI: 10.1016/s0021-9673(01)94303-1
[23] = not given; remark: listed apart in the source
[24] = method code SF-AS, from Ganga, L. X. J. S., & Zun-Yaob, L. H. W. (2009). Determination of lgKow and QSPR Study on Some Fluorobenzene Derivatives. Jiegou Huaxue, 28(10).
[25] = method code SF-AS, from DOI: 10.1002/etc.5620181211
[26] = not given; remark: listed apart in the source
[27] = not given; remark: listed apart in the source

SMILES: Clc1ccc(Cl)c(Cl)c1Cl
logP [3]: 4.6

SMILES: N#CN=[N+]([O-])c1cnccn1
logP [5]: 0.1

SMILES: CC1CCC(=O)N1 (stereo not drawn)
logP [7]: -0.1

SMILES: COP(=O)(OC)OC(Br)C(Cl)(Cl)Br (stereo not drawn)
logP [8]: 2.19

SMILES: Clc1cccc(C(Cl)(Cl)Cl)n1
logP [10]: 3.41

SMILES: CON=C(C#N)C(=O)NCC(=O)O
logP [16]: -0.58

SMILES: Oc1ccc(O)c(Cl)c1
logP [17]: 1.4

SMILES: CCOCC1CO1 (stereo not drawn)
logP [18]: 0.27

SMILES: CC(CCl)OC(C)CCl (stereo not drawn)
logP [19]: 2.48

SMILES: CCCCBr
logP [22]: 2.75

SMILES: COP(=O)(OC)OC=C(Cl)Cl
logP [26]: 1.4

SMILES: COCC(C)OC(C)=O (stereo not drawn)
logP [27]: 0.56

Other lines, results leading:

logP: 0.03
SMILES: Nc1cc(N=O)ccc1O

logP [1]: 2.84
SMILES: ClC1C=CCC(Cl)C1Cl (stereo not drawn)

logP [2]: 1.08
SMILES: COC(=O)c1ccco1

logP [4]: -0.89
SMILES: Cn1c(C(O)CO)cnc1[N+](=O)[O-] (stereo not drawn)

logP [6]: 0.81
SMILES: CCCCC(O)C(=O)O (stereo not drawn)

logD [9]: -3.52
SMILES: NC1CCN(O)C1=O (stereo not drawn)

logP [11]: 1.59
SMILES: CCc1ccc[nH]1

logP [12]: -2.16
SMILES: Nc1ccc(S(=O)(=O)O)cc1

logP [13]: 0.61
SMILES: Oc1ccc(O)cc1

logP [14]: -0.83
SMILES: O=C(O)c1cc(=O)[nH]c(=O)[nH]1

logD [15]: -0.16
SMILES: Nc1nc(S)c2[nH]cnc2n1

logP [20]: 1.53
SMILES: Nc1cc([N+](=O)[O-])cc(Cl)c1O

logD [21]: 1.52
SMILES: O=C(O)C1CCCC1

logP [23]: -0.56
SMILES: Nc1cc(Cl)c(S(N)(=O)=O)cc1S(N)(=O)=O

logP [24]: 2.26
SMILES: Fc1ccc(F)cc1

logP [25]: 0.01
SMILES: Cc1cccnc1N
